In general, IC50 refers to the midpoint of a concentration-inhibition curve. A low value points to greater potency.

The test system of the experiment is Endogenous Huntingtin Protein (HTT). Kind of experiment: Endogenous Huntingtin Protein Assay (ELISA-based MSD electrochemiluminescence). Type of experiment: cell-based. The note with it: Table 1. On the procedure: Compounds of Formula (I) were tested using the Meso Scale Discovery (MSD) Assay provided in International Application No. PCT/US2016/066042, filed on Dec. 11, 2016 and claiming priority to U.S. Provisional Application 62/265,652 filed on Dec. 10, 2015, published as International Publication No. WO 2017/100726 on Jun. 15, 2017, the entire contents of which are incorporated herein by reference.
The Endogenous Huntingtin Protein assay used in Example 1 was developed using the ELISA-based MSD electrochemiluminescence assay platform.
Endogenous Huntingtin Protein Assay
Meso Scale Discovery (MSD) 96-well or 384-well plates were coated overnight at 4° C. with MW1 (expanded polyglutamine) or MAB2166 monoclonal antibody (for capture) at a concentration of 1 μg/mL in PBS (30 μL per well). Plates were then washed three times with 300 µL wash buffer (0.05% Tween-20 in PBS) and blocked (100 μL blocking buffer; 5% BSA in PBS) for 4-5 hours at room temperature with rotational shaking and then washed three times with wash buffer.
Samples (25 μL) were transferred to the antibody-coated MSD plate and incubated overnight at 4° C. After removal of the lysates, the plate was washed three times with wash buffer, and 25 μL of #5656S (Cell signaling; rabbit monoclonal) secondary antibody (diluted to 0.25 μg/mL in 0.05% Tween-20 in blocking buffer) was added to each well and incubated with shaking for 1 Hour at room temperature. Following incubation with the secondary antibody, the wells were rinsed with wash buffer after which 25 μL of goat anti-rabbit SULFO TAG secondary detection antibody (required aspect of the MSD system) (diluted to 0.25 μg/mL in 0.05% Tween-20 in blocking buffer) was added to each well and incubated with shaking for 1 hour at room temperature. After rinsing three times with wash buffer, 150 μL of read buffer T with surfactant (MSD) were added to each empty well, and the plate was imaged on a SI 6000 imager (MSD) according to manufacturers' instructions provided for 96- or 384-well plates.
A general note: An ELISA detects its analyte on a solid surface through an enzyme-linked reagent.
`C[C@H]1CN(c2ccc3nc(-c4ccc5c(cnn5C)c4)cc(=O)n3c2)CCN1` [compound 553, 2-(1-methyl-1H-indazol-5-yl)-7-[(3S)-3-methylpiperazin-1-yl]-4H-pyrido[1,2-a]pyrimidin-4-one] displayed an IC50 of 3 to 33 µM.
To `CCN1CCN(c2ccc3nc(-c4cc5c(C6CC6)nc(C)cn5n4)cc(=O)n3c2)CC1` [compound 685, 2-(4-cyclopropyl-6-methylpyrazolo[1,5-a]pyrazin-2-yl)-7-(4-ethylpiperazin-1-yl)-4H-pyrido[1,2-a]pyrimidin-4-one] belongs 3 to 33 µM; to `Cc1cn2nc(-c3cc(=O)n4cc(N5CCN(C)CC5)ccc4n3)cc2c(N(C)C)n1` [compound 843, 2-[4-(dimethylamino)-6-methylpyrazolo[1,5-a]pyrazin-2-yl]-7-(4-methylpiperazin-1-yl)-4H-pyrido[1,2-a]pyrimidin-4-one], 3 to 33 µM; to `Cc1cn2cc(-c3ccc4nc(C5CCNCC5)cc(=O)n4c3)cc(F)c2n1` [compound 410, 7-(8-fluoro-2-methylimidazo[1,2-a]pyridin-6-yl)-2-(piperidin-4-yl)-4H-pyrido[1,2-a]pyrimidin-4-one], 0.5 to 1 µM.
In the case of `CCc1nc(C)cn2nc(-c3cc(=O)n4cc(C5CCNCC5)cc(C)c4n3)cc12` [compound 771, 2-(4-ethyl-6-methylpyrazolo[1,5-a]pyrazin-2-yl)-9-methyl-7-(piperidin-4-yl)-4H-pyrido[1,2-a]pyrimidin-4-one] it was 0.5 to 1 µM; in that of `CCN1CC=C(c2cn3c(=O)cc(-c4ccc5nc(C)cn5n4)nc3cn2)CC1` [compound 842, 7-(1-ethyl-1,2,3,6-tetrahydropyridin-4-yl)-2-(2-methylimidazo[1,2-b]pyridazin-6-yl)-4H-pyrazino[1,2-a]pyrimidin-4-one], 3 to 33 µM.
On to `CCN1CC=C(c2ccc3nc(-c4ccc5nn(C)cc5c4)cc(=O)n3c2)CC1` [compound 477, 7-(1-ethyl-1,2,3,6-tetrahydropyridin-4-yl)-2-(2-methyl-2H-indazol-5-yl)-4H-pyrido[1,2-a]pyrimidin-4-one], for which the concentration for half-maximal inhibition (IC50) lay within 1 to 3 µM.
To `O=c1cc(-c2cccnc2)nc2ccc(N3CCNCC3)cn12` [compound 228, 7-(piperazin-1-yl)-2-(pyridin-3-yl)-4H-pyrido[1,2-a]pyrimidin-4-one] belongs 3 to 33 µM; to `Cc1cn2nc(-c3cc(=O)n4cc(C5=CCNCC5)cc(C)c4n3)cc2c(C)n1` [compound 480, 2-(4,6-dimethylpyrazolo[1,5-a]pyrazin-2-yl)-9-methyl-7-(1,2,3,6-tetrahydropyridin-4-yl)-4H-pyrido[1,2-a]pyrimidin-4-one], 0.1 to 0.5 µM.
In turn, `Cc1cc2cc(-c3cc(=O)n4cc(C5=CCNCC5)ccc4n3)ccn2n1` [compound 857, 2-(2-methylpyrazolo[1,5-a]pyridin-5-yl)-7-(1,2,3,6-tetrahydropyridin-4-yl)-4H-pyrido[1,2-a]pyrimidin-4-one] displayed an IC50 of 0.5 to 1 µM.
With `Cc1cn2cc(-c3cc(=O)n4cc(N5CCNCC5)ccc4n3)cc(C3CC3)c2n1` [compound 714, 2-(8-cyclopropyl-2-methylimidazo[1,2-a]pyridin-6-yl)-7-(piperazin-1-yl)-4H-pyrido[1,2-a]pyrimidin-4-one], the IC50 lay within 3 to 33 µM.
In the case of `Cc1cn2nc(-c3cc(=O)n4cc(N5CCNCC5)ccc4n3)cc2c(N(C)C)n1` [compound 688, 2-[4-(dimethylamino)-6-methylpyrazolo[1,5-a]pyrazin-2-yl]-7-(piperazin-1-yl)-4H-pyrido[1,2-a]pyrimidin-4-one] it was 3 to 33 µM.
In turn, `CCc1nc(C)cn2cc(-c3cc(=O)n4cc(N5CCCNCC5)ccc4n3)cc12` [compound 749, 7-(1,4-diazepan-1-yl)-2-(1-ethyl-3-methylpyrrolo[1,2-a]pyrazin-7-yl)-4H-pyrido[1,2-a]pyrimidin-4-one] yielded an IC50 of 3 to 33 µM.
To `O=c1cc(-c2ccn3ccnc3c2)nc2ccc(N3CCNCC3)cn12` [compound 107, 2-(imidazo[1,2-a]pyridin-7-yl)-7-(piperazin-1-yl)-4H-pyrido[1,2-a]pyrimidin-4-one] belongs 3 to 33 µM; to `CCc1nc(C)cn2nc(-c3cc(=O)n4cc(N5CCCN(C)CC5)ccc4n3)cc12` [compound 636, 2-(4-ethyl-6-methylpyrazolo[1,5-a]pyrazin-2-yl)-7-(4-methyl-1,4-diazepan-1-yl)-4H-pyrido[1,2-a]pyrimidin-4-one], 3 to 33 µM; to `Cc1cn2nc(-c3cc(=O)n4cc(C5CCNCC5)ccc4n3)cc2c(C)n1` [compound 452, 2-(4,6-dimethylpyrazolo[1,5-a]pyrazin-2-yl)-7-(piperidin-4-yl)-4H-pyrido[1,2-a]pyrimidin-4-one], 0.1 to 0.5 µM.
`CCc1nc(C)cn2nc(-c3cc(=O)n4cc(N5CCC(N(C)C)CC5)ccc4n3)cc12` [compound 550, 7-[4-(dimethylamino)piperidin-1-yl]-2-(4-ethyl-6-methylpyrazolo[1,5-a]pyrazin-2-yl)-4H-pyrido[1,2-a]pyrimidin-4-one] yielded an IC50 of 3 to 33 µM.
In turn, `COc1cncc(-c2cc(=O)n3cc(N4CCNCC4)ccc3n2)c1` [compound 229, 2-(5-methoxypyridin-3-yl)-7-(piperazin-1-yl)-4H-pyrido[1,2-a]pyrimidin-4-one] gave an IC50 of 3 to 33 µM.
Molecule `Cc1cn2nc(-c3cc(=O)n4cc(N5C[C@@H](C)N[C@@H](C)C5)ccc4n3)cc2cn1` [compound 442, 7-[(3R,5S)-3,5-dimethylpiperazin-1-yl]-2-(6-methylpyrazolo[1,5-a]pyrazin-2-yl)-4H-pyrido[1,2-a]pyrimidin-4-one] showed an IC50 of 3 to 33 µM.
`CCN1C[C@@H]2C[C@H]1CN2c1ccc2nc(-c3cc4c(C)nc(C)cn4n3)cc(=O)n2c1` [compound 401, 2-(4,6-dimethylpyrazolo[1,5-a]pyrazin-2-yl)-7-[(1S,4S)-5-ethyl-2,5-diazabicyclo[2.2.1]hept-2-yl]-4H-pyrido[1,2-a]pyrimidin-4-one] yielded an IC50 of 3 to 33 µM.
To `CCc1nc(C)cn2nc(-c3cc(=O)n4cc(N5CCNCC5)ccc4n3)cc12` [compound 546, 2-(4-ethyl-6-methylpyrazolo[1,5-a]pyrazin-2-yl)-7-(piperazin-1-yl)-4H-pyrido[1,2-a]pyrimidin-4-one] belongs 1 to 3 µM; to `Cc1cn2ccc(-c3cc(=O)n4cc(C5CCNCC5)ccc4n3)cc2n1` [compound 556, 2-(2-methylimidazo[1,2-a]pyridin-7-yl)-7-(piperidin-4-yl)-4H-pyrido[1,2-a]pyrimidin-4-one], 3 to 33 µM; to `O=c1cc(-c2cnc(O)c(F)c2)nc2ccc(N3CCNCC3)cn12` [compound 839, 2-(5-fluoro-6-hydroxypyridin-3-yl)-7-(piperazin-1-yl)-4H-pyrido[1,2-a]pyrimidin-4-one], 3 to 33 µM.
To `Cc1cc(-c2cc(=O)n3cc(N4CCNCC4)ccc3n2)cc2cn(C)nc12` [compound 738, 2-(2,7-dimethyl-2H-indazol-5-yl)-7-(piperazin-1-yl)-4H-pyrido[1,2-a]pyrimidin-4-one] belongs 0.1 to 0.5 µM; to `Cc1cn2cc(-c3cc(=O)n4cc(N5CCNCC5)ccc4n3)cc(CO)c2n1` [compound 674, 2-[8-(hydroxymethyl)-2-methylimidazo[1,2-a]pyridin-6-yl]-7-(piperazin-1-yl)-4H-pyrido[1,2-a]pyrimidin-4-one], 3 to 33 µM.
`CN(C)c1ccc(-c2cc(=O)n3cc(C4CCNCC4)ccc3n2)cn1` [compound 465, 2-[6-(dimethylamino)pyridin-3-yl]-7-(piperidin-4-yl)-4H-pyrido[1,2-a]pyrimidin-4-one] came in with an IC50 of 3 to 33 µM.
Molecule `Cc1cn2nc(-c3cc(=O)n4cc(N5CCN(CCO)[C@H](C)C5)ccc4n3)cc2c(C)n1` [compound 532, 2-(4,6-dimethylpyrazolo[1,5-a]pyrazin-2-yl)-7-[(3R)-4-(2-hydroxyethyl)-3-methylpiperazin-1-yl]-4H-pyrido[1,2-a]pyrimidin-4-one] registered an IC50 of 1 to 3 µM.
In the case of `Cc1cn2cc(-c3cc(=O)n4cc(N5CCN6CCC[C@H]6C5)ccc4n3)cc(F)c2n1` [compound 271, 2-(8-fluoro-2-methylimidazo[1,2-a]pyridin-6-yl)-7-[(8aS)-hexahydropyrrolo[1,2-a]pyrazin-2(1H)-yl]-4H-pyrido[1,2-a]pyrimidin-4-one] it was 1 to 3 µM; in that of `CCc1nc(C)cn2nc(-c3cc(=O)n4cc(N5CCN(CCCF)[C@H](C)C5)ccc4n3)cc12` [compound 667, 2-(4-ethyl-6-methylpyrazolo[1,5-a]pyrazin-2-yl)-7-[(3R)-4-(3-fluoropropyl)-3-methylpiperazin-1-yl]-4H-pyrido[1,2-a]pyrimidin-4-one], 1 to 3 µM.
To `Cc1cn2nc(-c3cc(=O)n4cc(N5CCC(C)(NCCO)CC5)ccc4n3)cc2c(C)n1` [compound 709, 2-(4,6-dimethylpyrazolo[1,5-a]pyrazin-2-yl)-7-{4-[(2-hydroxyethyl)amino]-4-methylpiperidin-1-yl}-4H-pyrido[1,2-a]pyrimidin-4-one] belongs 3 to 33 µM.
